Laboratory results: US20120010075A1 (priority 2009, published 2012)

system: Phytophthora infestans; assay: not given; format: in vivo, Phytophthora infestans on tomato; settings: hydrazone 50 ppm + 50 μM CuCl2.2H2O, applied 24 h before inoculation, assessed 7 days after inoculation, tomato

Compared with `O=C(N/N=C/c1cc(Cl)cc(Cl)c1O)c1cccc(C(F)(F)F)c1` [Example 249], `O=C(N/N=C/c1cc(Cl)cc(Cl)c1O)c1cccc(OC(F)(F)F)c1` [Example 250] is lower in “TLB % Control” value: 100.0% for the first, 97.0% for the second.

Compared with `C/C(=N\NC(=O)c1ccccc1)c1ccc(Cl)cc1O` [Example 251], `C/C(=N\NC(=O)c1ccccc1Cl)c1ccc(Cl)cc1O` [Example 255] is lower in “TLB % Control” value: 33.0% for the first, 28.0% for the second.

First: C/C(=N\NC(=O)c1ccccc1C)c1ccc(Cl)cc1O [Example 252]
Second: C/C(=N\NC(=O)c1cccc(C)c1)c1ccc(Cl)cc1O [Example 253]
The “TLB % Control” value of the first is higher: 28.0% for the first, 14.0% for the second.

Going from `C/C(=N\NC(=O)c1ccc(C)cc1)c1ccc(Cl)cc1O` [Example 254] to `C/C(=N\NC(=O)c1ccc(Cl)cc1)c1ccc(Cl)cc1O` [Example 257], the “TLB % Control” value rises from 0.0% to 21.0%.

First: C/C(=N\NC(=O)c1cccc(Cl)c1)c1ccc(Cl)cc1O [Example 256]
Second: COc1ccc(O)c(/C(C)=N/NC(=O)c2cccc(Cl)c2)c1 [Example 266]
The “TLB % Control” value of the first is lower: 18.0% for the first, 28.0% for the second.

First: Cc1ccc(O)c(C(=O)N/N=C/c2cc(Cl)cc(Cl)c2O)c1 [Example 258]
Second: CNc1ccc(C(=O)N/N=C/c2cc(Cl)cc(Cl)c2O)cc1 [Example 259]
The “TLB % Control” value of the first is higher: 87.0% for the first, 32.0% for the second.

Compared with `CCc1ccc(C(=O)N/N=C/c2cc(Cl)cc(Cl)c2O)cc1` [Example 260], `COc1ccc(O)c(/C(C)=N/NC(=O)c2ccc(Cl)cc2)c1` [Example 267] is lower in “TLB % Control” value: 81.0% for the first, 33.0% for the second.

First: COc1ccc(O)c(/C(C)=N/NC(=O)c2ccccc2)c1 [Example 261]
Second: COc1ccc(O)c(/C(C)=N/NC(=O)c2ccccc2Cl)c1 [Example 265]
The “TLB % Control” value of the first is lower: 10.0% for the first, 15.0% for the second.

First: COc1ccc(O)c(/C(C)=N/NC(=O)c2ccccc2C)c1 [Example 262]
Second: COc1ccc(O)c(/C(C)=N/NC(=O)c2cccc(C)c2)c1 [Example 263]
The “TLB % Control” value of the first is lower: 4.6% for the first, 14.0% for the second.

Compared with `COc1ccc(O)c(/C(C)=N/NC(=O)c2ccc(C)cc2)c1` [Example 264], `C/C(=N\NC(=O)c1ccccc1)c1cccc([N+](=O)[O-])c1O` [Example 268] is higher in “TLB % Control” value: 21.0% for the first, 31.0% for the second.

With `C/C(=N\NC(=O)c1ccccc1C)c1cccc([N+](=O)[O-])c1O` [Example 269] the “TLB % Control” value was 21.0%.

system: Leptosphaeria nodorum (LEPTNO); assay: In vitro fungitoxicity of hydrazones with and without copper towards Leptosphaeria nodorum (Example 26); format: cell-based; settings: Parastagonospora nodorum, 72 h, compound 0.05 μg/mL, copper-minus medium, 72 h at 25° C.; read-out: LEPTNO % Inhn. Minus Copper Observed

Compared with `O=C(N/N=C/c1cc(Cl)cc(Cl)c1O)c1cccc(C(F)(F)F)c1` [Example 249], `O=C(N/N=C/c1cc(Cl)cc(Cl)c1O)c1cccc(OC(F)(F)F)c1` [Example 250] is lower in inhibition of growth at 0.05 µg/mL: 27.8% for the first, 8.7% for the second.

First: C/C(=N\NC(=O)c1ccccc1)c1ccc(Cl)cc1O [Example 251]
Second: C/C(=N\NC(=O)c1ccccc1Cl)c1ccc(Cl)cc1O [Example 255]
The inhibition of growth at 0.05 µg/mL of the first is lower: 3.5% for the first, 3.6% for the second.

First: C/C(=N\NC(=O)c1ccccc1C)c1ccc(Cl)cc1O [Example 252]
Second: C/C(=N\NC(=O)c1cccc(C)c1)c1ccc(Cl)cc1O [Example 253]
The inhibition of growth at 0.05 µg/mL of the first is higher: 7.8% for the first, 4.9% for the second.

Going from `C/C(=N\NC(=O)c1ccc(C)cc1)c1ccc(Cl)cc1O` [Example 254] to `C/C(=N\NC(=O)c1ccc(Cl)cc1)c1ccc(Cl)cc1O` [Example 257], the inhibition of growth at 0.05 µg/mL falls from 8.3% to 6%.

Going from `C/C(=N\NC(=O)c1cccc(Cl)c1)c1ccc(Cl)cc1O` [Example 256] to `COc1ccc(O)c(/C(C)=N/NC(=O)c2cccc(Cl)c2)c1` [Example 266], the inhibition of growth at 0.05 µg/mL rises from 3% to 4.5%.

First: Cc1ccc(O)c(C(=O)N/N=C/c2cc(Cl)cc(Cl)c2O)c1 [Example 258]
Second: CNc1ccc(C(=O)N/N=C/c2cc(Cl)cc(Cl)c2O)cc1 [Example 259]
The inhibition of growth at 0.05 µg/mL of the first is higher: 34.1% for the first, 9.9% for the second.

Going from `CCc1ccc(C(=O)N/N=C/c2cc(Cl)cc(Cl)c2O)cc1` [Example 260] to `COc1ccc(O)c(/C(C)=N/NC(=O)c2ccc(Cl)cc2)c1` [Example 267], the inhibition of growth at 0.05 µg/mL falls from 11.2% to 5.7%.

Compared with `COc1ccc(O)c(/C(C)=N/NC(=O)c2ccccc2)c1` [Example 261], `COc1ccc(O)c(/C(C)=N/NC(=O)c2ccccc2Cl)c1` [Example 265] is lower in inhibition of growth at 0.05 µg/mL: 2.7% for the first, 0% for the second.

Going from `COc1ccc(O)c(/C(C)=N/NC(=O)c2ccccc2C)c1` [Example 262] to `COc1ccc(O)c(/C(C)=N/NC(=O)c2cccc(C)c2)c1` [Example 263], the inhibition of growth at 0.05 µg/mL rises from 3.1% to 4.1%.

Compared with `COc1ccc(O)c(/C(C)=N/NC(=O)c2ccc(C)cc2)c1` [Example 264], `C/C(=N\NC(=O)c1ccccc1)c1cccc([N+](=O)[O-])c1O` [Example 268] is lower in inhibition of growth at 0.05 µg/mL: 6% for the first, 1.2% for the second.

For `C/C(=N\NC(=O)c1ccccc1C)c1cccc([N+](=O)[O-])c1O` [Example 269], the inhibition of growth at 0.05 µg/mL was 0%.

same assay, conditions: compound 0.05 μg/mL, copper-plus medium (CuCl2.2H2O), 72 h at 25° C.

Going from `O=C(N/N=C/c1cc(Cl)cc(Cl)c1O)c1cccc(C(F)(F)F)c1` [Example 249] to `O=C(N/N=C/c1cc(Cl)cc(Cl)c1O)c1cccc(OC(F)(F)F)c1` [Example 250], the “LEPTNO % Inhn. Plus Copper Observed” value rises from 95.8% to 98.1%.

Compared with `C/C(=N\NC(=O)c1ccccc1)c1ccc(Cl)cc1O` [Example 251], `C/C(=N\NC(=O)c1ccccc1Cl)c1ccc(Cl)cc1O` [Example 255] is higher in “LEPTNO % Inhn. Plus Copper Observed” value: 98.1% for the first, 98.2% for the second.

First: C/C(=N\NC(=O)c1ccccc1C)c1ccc(Cl)cc1O [Example 252]
Second: C/C(=N\NC(=O)c1cccc(C)c1)c1ccc(Cl)cc1O [Example 253]
The “LEPTNO % Inhn. Plus Copper Observed” value of the first is higher: 98.4% for the first, 98.0% for the second.

First: C/C(=N\NC(=O)c1ccc(C)cc1)c1ccc(Cl)cc1O [Example 254]
Second: C/C(=N\NC(=O)c1ccc(Cl)cc1)c1ccc(Cl)cc1O [Example 257]
The “LEPTNO % Inhn. Plus Copper Observed” value of the first is higher: 98.1% for the first, 94.4% for the second.

Going from `C/C(=N\NC(=O)c1cccc(Cl)c1)c1ccc(Cl)cc1O` [Example 256] to `COc1ccc(O)c(/C(C)=N/NC(=O)c2cccc(Cl)c2)c1` [Example 266], the “LEPTNO % Inhn. Plus Copper Observed” value falls from 98.7% to 95.4%.

First: Cc1ccc(O)c(C(=O)N/N=C/c2cc(Cl)cc(Cl)c2O)c1 [Example 258]
Second: CNc1ccc(C(=O)N/N=C/c2cc(Cl)cc(Cl)c2O)cc1 [Example 259]
The “LEPTNO % Inhn. Plus Copper Observed” value of the first is lower: 97.4% for the first, 97.9% for the second.

Compared with `CCc1ccc(C(=O)N/N=C/c2cc(Cl)cc(Cl)c2O)cc1` [Example 260], `COc1ccc(O)c(/C(C)=N/NC(=O)c2ccc(Cl)cc2)c1` [Example 267] is higher in “LEPTNO % Inhn. Plus Copper Observed” value: 97.1% for the first, 98.3% for the second.

Going from `COc1ccc(O)c(/C(C)=N/NC(=O)c2ccccc2)c1` [Example 261] to `COc1ccc(O)c(/C(C)=N/NC(=O)c2ccccc2Cl)c1` [Example 265], the “LEPTNO % Inhn. Plus Copper Observed” value rises from 97.9% to 98.1%.

Compared with `COc1ccc(O)c(/C(C)=N/NC(=O)c2ccccc2C)c1` [Example 262], `COc1ccc(O)c(/C(C)=N/NC(=O)c2cccc(C)c2)c1` [Example 263] is higher in “LEPTNO % Inhn. Plus Copper Observed” value: 94.0% for the first, 97.9% for the second.

Going from `COc1ccc(O)c(/C(C)=N/NC(=O)c2ccc(C)cc2)c1` [Example 264] to `C/C(=N\NC(=O)c1ccccc1)c1cccc([N+](=O)[O-])c1O` [Example 268], the “LEPTNO % Inhn. Plus Copper Observed” value rises from 98.4% to 98.7%.

In the case of `C/C(=N\NC(=O)c1ccccc1C)c1cccc([N+](=O)[O-])c1O` [Example 269], the “LEPTNO % Inhn. Plus Copper Observed” value is reported as 98.8%.

system: not given; assay: not given; settings: not given

First: O=C(N/N=C/c1cc(Cl)cc(Cl)c1O)c1cccc(C(F)(F)F)c1 [Example 249]
Second: O=C(N/N=C/c1cc(Cl)cc(Cl)c1O)c1cccc(OC(F)(F)F)c1 [Example 250]
The melting point of the first is lower: 165 to 169 °C for the first, 180 to 182 °C for the second.

Compared with `C/C(=N\NC(=O)c1ccccc1)c1ccc(Cl)cc1O` [Example 251], `C/C(=N\NC(=O)c1ccccc1Cl)c1ccc(Cl)cc1O` [Example 255] is lower in melting point: 236 to 237 °C for the first, 183 to 184 °C for the second.

Compared with `C/C(=N\NC(=O)c1ccccc1C)c1ccc(Cl)cc1O` [Example 252], `C/C(=N\NC(=O)c1cccc(C)c1)c1ccc(Cl)cc1O` [Example 253] is lower in melting point: 214 to 215 °C for the first, 210 to 211 °C for the second.

First: C/C(=N\NC(=O)c1ccc(C)cc1)c1ccc(Cl)cc1O [Example 254]
Second: C/C(=N\NC(=O)c1ccc(Cl)cc1)c1ccc(Cl)cc1O [Example 257]
The melting point of the first is higher: 254 to 256 °C for the first, 246 to 247 °C for the second.

First: C/C(=N\NC(=O)c1cccc(Cl)c1)c1ccc(Cl)cc1O [Example 256]
Second: COc1ccc(O)c(/C(C)=N/NC(=O)c2cccc(Cl)c2)c1 [Example 266]
The melting point of the first is higher: 222 to 223 °C for the first, 190 to 201 °C for the second.

First: Cc1ccc(O)c(C(=O)N/N=C/c2cc(Cl)cc(Cl)c2O)c1 [Example 258]
Second: CNc1ccc(C(=O)N/N=C/c2cc(Cl)cc(Cl)c2O)cc1 [Example 259]
The melting point of the first is higher: 277 to 280 °C for the first, 245 to 253 °C for the second.

Compared with `CCc1ccc(C(=O)N/N=C/c2cc(Cl)cc(Cl)c2O)cc1` [Example 260], `COc1ccc(O)c(/C(C)=N/NC(=O)c2ccc(Cl)cc2)c1` [Example 267] is lower in melting point: 286 to 289 °C for the first, 193 to 196 °C for the second.

Compared with `COc1ccc(O)c(/C(C)=N/NC(=O)c2ccccc2)c1` [Example 261], `COc1ccc(O)c(/C(C)=N/NC(=O)c2ccccc2Cl)c1` [Example 265] is higher in melting point: 150 to 152 °C for the first, 170 to 184 °C for the second.

Compared with `COc1ccc(O)c(/C(C)=N/NC(=O)c2ccccc2C)c1` [Example 262], `COc1ccc(O)c(/C(C)=N/NC(=O)c2cccc(C)c2)c1` [Example 263] is lower in melting point: 146 to 155 °C for the first, 131 to 141 °C for the second.

First: COc1ccc(O)c(/C(C)=N/NC(=O)c2ccc(C)cc2)c1 [Example 264]
Second: C/C(=N\NC(=O)c1ccccc1)c1cccc([N+](=O)[O-])c1O [Example 268]
The melting point of the first is lower: 159 to 162 °C for the first, 215 to 224 °C for the second.

`C/C(=N\NC(=O)c1ccccc1C)c1cccc([N+](=O)[O-])c1O` [Example 269] showed a melting point of 193 to 196 °C.
